# In ChEMBL document CHEMBL5226288, “A perspective on medicinal chemistry approaches towards adenomatous polyposis coli and Wnt signal based colorectal cancer inhibitors” (Eur J Med Chem, 2021):
# Non-standard residues stand in square brackets, D forms with d. Residues, ends and D or L forms follow the SMILES beside them. *: point of attachment. Ala(cPent) = N[C@@H](CC1CCCC1)C(=O)O; Cbz = O=C(OCc1ccccc1)*
# Tests used:
# [1] = molecular target: T1, Adenomatous polyposis coli protein (Homo sapiens, UniProt P25054); test: Inhibition of APC (303 to 739 residues) (unknown origin) preincubated for 60 mins followed by substrate addition and measured after 60 mins using Ac-GGGGEQLAINELISDGK-FITC as substrate by fluorescence polarization assay
# T1 sequence (P25054 whole entry, the tested form may be a part): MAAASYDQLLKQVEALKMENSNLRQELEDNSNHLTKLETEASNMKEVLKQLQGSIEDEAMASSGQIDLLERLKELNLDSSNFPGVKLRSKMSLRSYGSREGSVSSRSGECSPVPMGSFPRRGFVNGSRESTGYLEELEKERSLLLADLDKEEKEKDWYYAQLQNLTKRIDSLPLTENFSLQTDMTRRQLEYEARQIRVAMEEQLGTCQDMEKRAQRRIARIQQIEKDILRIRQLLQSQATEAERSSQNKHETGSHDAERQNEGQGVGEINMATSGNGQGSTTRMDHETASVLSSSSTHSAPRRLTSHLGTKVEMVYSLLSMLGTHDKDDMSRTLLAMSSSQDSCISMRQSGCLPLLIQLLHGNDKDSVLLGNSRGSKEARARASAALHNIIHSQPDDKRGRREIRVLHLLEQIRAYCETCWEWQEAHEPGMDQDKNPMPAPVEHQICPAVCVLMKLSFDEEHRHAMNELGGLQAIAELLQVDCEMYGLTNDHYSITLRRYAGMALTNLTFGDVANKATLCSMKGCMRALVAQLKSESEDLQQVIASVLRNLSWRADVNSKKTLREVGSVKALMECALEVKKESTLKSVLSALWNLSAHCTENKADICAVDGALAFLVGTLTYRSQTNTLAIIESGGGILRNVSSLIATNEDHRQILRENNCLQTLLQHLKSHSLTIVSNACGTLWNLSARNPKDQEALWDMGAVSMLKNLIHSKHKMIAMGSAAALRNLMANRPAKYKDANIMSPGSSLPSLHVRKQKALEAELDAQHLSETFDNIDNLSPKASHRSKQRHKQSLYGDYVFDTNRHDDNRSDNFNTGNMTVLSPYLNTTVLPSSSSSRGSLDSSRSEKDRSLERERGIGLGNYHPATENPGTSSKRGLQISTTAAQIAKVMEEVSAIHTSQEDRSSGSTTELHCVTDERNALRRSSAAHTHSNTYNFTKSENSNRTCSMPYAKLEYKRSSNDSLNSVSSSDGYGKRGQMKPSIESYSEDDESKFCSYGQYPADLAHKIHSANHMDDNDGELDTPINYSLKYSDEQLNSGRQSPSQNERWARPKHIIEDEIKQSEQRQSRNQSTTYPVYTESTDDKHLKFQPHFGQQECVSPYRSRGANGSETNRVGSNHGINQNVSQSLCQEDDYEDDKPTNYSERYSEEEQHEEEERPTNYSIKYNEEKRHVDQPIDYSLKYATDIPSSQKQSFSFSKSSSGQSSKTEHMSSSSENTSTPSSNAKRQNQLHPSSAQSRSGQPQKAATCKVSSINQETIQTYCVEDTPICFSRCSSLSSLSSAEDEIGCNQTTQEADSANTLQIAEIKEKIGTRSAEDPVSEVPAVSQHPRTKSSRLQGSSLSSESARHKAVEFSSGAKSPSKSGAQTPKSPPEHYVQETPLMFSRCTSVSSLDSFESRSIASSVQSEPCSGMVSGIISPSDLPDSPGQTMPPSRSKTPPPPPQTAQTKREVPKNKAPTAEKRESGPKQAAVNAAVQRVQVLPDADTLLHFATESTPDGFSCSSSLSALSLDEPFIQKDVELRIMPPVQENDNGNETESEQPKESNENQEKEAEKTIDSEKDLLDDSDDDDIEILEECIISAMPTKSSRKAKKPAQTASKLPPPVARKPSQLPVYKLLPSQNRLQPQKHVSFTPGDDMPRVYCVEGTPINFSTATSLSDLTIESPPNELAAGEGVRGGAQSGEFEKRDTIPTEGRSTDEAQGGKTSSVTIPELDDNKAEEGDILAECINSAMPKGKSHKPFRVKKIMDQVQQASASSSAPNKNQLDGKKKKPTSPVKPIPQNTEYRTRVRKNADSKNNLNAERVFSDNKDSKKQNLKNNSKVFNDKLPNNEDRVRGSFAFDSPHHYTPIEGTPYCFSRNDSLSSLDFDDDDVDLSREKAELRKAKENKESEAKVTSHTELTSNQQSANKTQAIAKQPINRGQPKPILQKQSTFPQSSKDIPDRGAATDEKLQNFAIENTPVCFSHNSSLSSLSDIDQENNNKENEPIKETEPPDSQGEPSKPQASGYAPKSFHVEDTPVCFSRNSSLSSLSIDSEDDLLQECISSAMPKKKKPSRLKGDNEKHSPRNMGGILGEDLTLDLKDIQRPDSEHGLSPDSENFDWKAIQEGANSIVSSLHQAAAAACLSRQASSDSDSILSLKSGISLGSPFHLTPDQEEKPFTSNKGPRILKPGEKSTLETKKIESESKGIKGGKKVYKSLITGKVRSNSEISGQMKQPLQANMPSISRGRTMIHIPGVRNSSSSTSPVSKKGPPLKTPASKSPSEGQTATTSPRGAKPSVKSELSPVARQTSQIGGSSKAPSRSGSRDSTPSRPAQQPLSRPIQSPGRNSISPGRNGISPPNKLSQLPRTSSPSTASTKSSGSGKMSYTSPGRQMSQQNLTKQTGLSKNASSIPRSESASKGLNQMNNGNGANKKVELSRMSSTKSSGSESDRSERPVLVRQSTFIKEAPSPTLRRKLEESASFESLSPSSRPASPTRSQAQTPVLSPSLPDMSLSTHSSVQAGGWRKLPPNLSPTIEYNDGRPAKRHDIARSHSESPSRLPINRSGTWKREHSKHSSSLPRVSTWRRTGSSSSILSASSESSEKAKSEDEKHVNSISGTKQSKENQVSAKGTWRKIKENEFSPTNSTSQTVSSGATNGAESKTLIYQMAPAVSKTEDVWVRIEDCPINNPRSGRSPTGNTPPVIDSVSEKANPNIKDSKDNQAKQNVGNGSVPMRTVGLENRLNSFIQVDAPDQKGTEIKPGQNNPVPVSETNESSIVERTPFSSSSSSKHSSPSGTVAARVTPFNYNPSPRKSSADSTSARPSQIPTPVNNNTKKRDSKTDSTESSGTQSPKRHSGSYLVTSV
# [2] = molecular target: T1, Adenomatous polyposis coli protein; test: Inhibition of APC (303 to 739 residues) (unknown origin) assessed as inhibition constant preincubated for 60 mins followed by substrate addition and measured after 60 mins using Ac-GGGGEQLAINELISDGK-FITC as substrate by fluorescence polarization assay
# [3] = system: HCT-116; test: Anticancer activity against human HCT-116 cells assessed as reduction in cell viability; type: functional, cell-based
# [4] = system: HCT-116; test: Antiproliferative activity against human HCT-116 cells assessed as reduction in cell proliferation incubated for 72 hrs by MTS assay; type: functional, cell-based; settings: HCT-116, 72 h
# [5] = molecular target: DNA polymerase beta (Homo sapiens, UniProt P06746); test: Inhibition of human DNA polymerase beta using 32P-labeled 63-mer F-DNA substrate preincubated for 5 mins followed by substrate addition and measured after 45 mins by autoradiography
# [6] = molecular target: 3-beta-hydroxysteroid-Delta(8),Delta(7)-isomerase (Homo sapiens, UniProt Q15125); test: Inhibition of EBP (unknown origin)
# Chain of 3-beta-hydroxysteroid-Delta(8),Delta(7)-isomerase (Q15125 whole entry): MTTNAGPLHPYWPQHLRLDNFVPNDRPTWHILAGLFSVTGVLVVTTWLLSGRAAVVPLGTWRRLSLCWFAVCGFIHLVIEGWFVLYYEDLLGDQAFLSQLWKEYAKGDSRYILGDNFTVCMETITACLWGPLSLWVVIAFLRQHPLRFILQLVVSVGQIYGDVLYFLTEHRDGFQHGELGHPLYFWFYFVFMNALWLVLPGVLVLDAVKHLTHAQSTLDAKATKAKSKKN
# [7] = molecular target: T2, 7-dehydrocholesterol reductase (Homo sapiens, UniProt Q9UBM7); test: Inhibition of DHCR7 (unknown origin)
# T2 sequence (Q9UBM7 whole entry): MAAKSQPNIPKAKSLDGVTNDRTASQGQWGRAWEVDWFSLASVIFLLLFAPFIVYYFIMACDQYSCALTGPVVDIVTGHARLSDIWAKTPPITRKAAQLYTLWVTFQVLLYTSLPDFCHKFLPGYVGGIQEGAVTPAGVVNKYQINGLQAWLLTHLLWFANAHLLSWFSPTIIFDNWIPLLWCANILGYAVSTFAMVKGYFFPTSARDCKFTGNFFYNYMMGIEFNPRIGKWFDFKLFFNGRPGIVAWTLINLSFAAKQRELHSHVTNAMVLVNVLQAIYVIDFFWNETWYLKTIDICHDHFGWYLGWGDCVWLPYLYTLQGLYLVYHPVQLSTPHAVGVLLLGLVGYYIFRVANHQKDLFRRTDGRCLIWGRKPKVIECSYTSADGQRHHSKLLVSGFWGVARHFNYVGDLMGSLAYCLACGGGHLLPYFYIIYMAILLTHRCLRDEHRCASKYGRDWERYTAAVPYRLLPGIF
# [8] = system: DLD-1; test: Anticancer activity against human DLD-1 cells assessed as cell growth inhibition by SRB assay; type: functional, cell-based
# [9] = system: SW480; test: Anticancer activity against human SW480 cells assessed as cell growth inhibition by SRB assay; type: functional, cell-based
# [10] = Inhibition of Wnt/beta-catenin signaling pathway in mouse L Wnt-3A cells harbouring STF-reporter gene assessed as assessed as reduction in luciferase activity incubated for 24 hrs by luciferase reporter assay; type: cell-based
# [11] = system: SW480; test: Anticancer activity against human SW480 cells assessed as reduction in cell viability; type: functional, cell-based
# [12] = system: DLD-1; test: Anticancer activity against human DLD-1 cells assessed as reduction in cell viability incubated for 24 hrs by Cell Titer-Glo assay; type: functional, cell-based; settings: DLD-1, 24 h
# [13] = system: HCT-116; test: Anticancer activity against human HCT-116 cells assessed as reduction in cell viability incubated for 24 hrs by Cell Titer-Glo assay; type: functional, cell-based; settings: HCT-116, 24 h
molecule,measurement,setting,value
CC(C)C[C@H](NC(=O)[C@H](C)NC(=O)[C@H](CCC(=O)O)NC(=O)CNC(=O)[C@H](C)NC(=O)OCc1ccccc1)C(=O)N[C@@H](Cc1ccc(O)cc1)C(=O)N[C@@H](CCC(=O)O)C(=O)O (Cbz-AGEALYE-OH),IC50,[1],1090 nM
same,Ki,[2],120 nM
COC(=O)c1cccc(NS(=O)(=O)c2ccc(C)cc2)c1,IC50,[3],580 nM
Cn1ncnc2c(=O)n(C)c(=O)nc1-2,IC50,[4],2860 nM
C[C@H](NC(=O)OCc1ccccc1)C(=O)NCC(=O)N[C@@H](CCC(=O)O)C(=O)N[C@@H](C)C(=O)N[C@@H](CC1CCCC1)C(=O)N[C@@H](Cc1ccc(O)cc1)C(=O)N[C@@H](CCC(=O)O)C(=O)O (Cbz-AGEA[Ala(cPent)]YE-OH),IC50,[1],570 nM
same,Ki,[2],15 nM
COc1cccc(Nc2nc(NS(=O)(=O)c3cc(C)c(C)cc3C)n[nH]2)c1,IC50,[5],< 50000 nM
Cc1cc(C)c(S(=O)(=O)N2CCC(N3CCCCCC3)CC2)c(C)c1,IC50,[6],9.36 nM
same,IC50,[7],1390 nM
CC/C(=N/NC(=O)c1ccnc(NCCN2CCOCC2)c1)c1ccc(C)cc1O,IC50,[8],500 nM
same,IC50,[9],900 nM
Cc1cc(C(=O)N/N=C\c2ccccc2O)c2cc(Br)ccc2n1,IC50,[8],1000 nM
same,IC50,[9],600 nM
Cc1ccc2nc(NC(=O)CNC(=O)c3nn(-c4ccccc4)c(=O)c4c3CCS4)sc2c1,IC50,[10],27 nM
COc1ccccc1-n1nc(C(=O)NCC(=O)Nc2nc3ccc(C)cc3s2)c2c(c1=O)SCC2,IC50,[10],40 nM
Ac-GGEALAW-OH,IC50,[1],10100 nM
same,Ki,[2],3120 nM
Cn1nnc2c(C(N)=O)ncn2c1=O [TEMOZOLOMIDE],IC50,[3],< 50000 nM
CC1CCN(C2CCN(S(=O)(=O)c3ccc(OC(C)C)cc3)CC2)CC1,IC50,[6],< 1000 nM
same,IC50,[7],30 nM
COC(=O)c1c(C)cc2c(c1O)[C@]1(O)C(=O)c3cc4c(c(O)c3C(=O)[C@]1(OC)[C@H](O)C2)C(=O)C=C(N[C@H]1O[C@@H](C)[C@H](OC)[C@@H](O)[C@H]1OC)C4=O,IC50,[4],< 150 nM
CCOC(=O)C[C@H](NC(=O)[C@H](Cc1c[nH]c2ccccc12)NC(=O)Cc1cc2cc(C)ccc2[nH]1)C(=O)N[C@@H](CCC(=O)O)C(=O)OC,IC50,[11],10800 nM
same,IC50,[3],28800 nM
O=C1Nc2ccccc2C12OCC1(CO2)COC2(OC1)C(=O)Nc1ccccc12 (configuration not stated),IC50,[11],690 nM
Cc1ccc(-n2nc(C(=O)NCC(=O)Nc3nc4ccc(C)cc4s3)c3c(c2=O)SCC3)cc1,IC50,[10],25 nM
Cc1cc(C)c(S(=O)(=O)Nc2n[nH]c(Nc3ccc4ccccc4c3)n2)cc1C,IC50,[5],< 50000 nM
Cc1cc(SC(=O)O)c(S(=O)(=O)Nc2n[nH]c(Nc3ccccc3)n2)cc1C,IC50,[5],< 50000 nM
CCCC(=O)c1cc2c(c(O)c1C)C(=O)C(=O)c1c(O)cccc1-2,IC50,[4],780 nM
H-GGEQLAI-OH,IC50,[1],135000 nM
same,Ki,[2],44600 nM
Cc1cc(C)c(S(=O)(=O)N2CCC([N+]3(C)CCCC3)CC2)c(C)c1,IC50,[6],303 nM
same,IC50,[7],50000 nM
CN1CCN(S(=O)(=O)c2ccc(N3CCCC3=O)cc2)c2ccccc21,IC50,[11],15 nM
same,IC50,[3],8 nM
COc1ccc(-n2nc(C(=O)NCC(=O)Nc3nc4ccc(OC)cc4s3)c3ccccc3c2=O)cc1,IC50,[10],58 nM
Cc1cc(C)c(S(=O)(=O)Nc2n[nH]c(Nc3ccccc3)n2)cc1C,IC50,[5],< 50000 nM
Ac-AGEALAD-OH,IC50,[1],7970 nM
same,Ki,[2],2410 nM
Cc1cc(C)c(S(=O)(=O)N2CCC(N3CN4CCC3CC4)CC2)c(C)c1,IC50,[6],188 nM
same,IC50,[7],2040 nM
CC(=O)Nc1cccc(-n2c(=O)n(C3CC3)c(=O)c3c(Nc4ccc(I)cc4F)n(C)c(=O)c(C)c32)c1 [TRAMETINIB],IC50,[12],1340 nM
same,IC50,[13],1160 nM
Cc1cc(C)c(S(=O)(=O)N2CCC(NCc3ccccc3)CC2)c(C)c1,IC50,[6],2.95 nM
same,IC50,[7],1070 nM
CC/C(=N/NC(=O)c1ccccc1)c1cc(C)cc(C)c1O,IC50,[8],900 nM
same,IC50,[9],1700 nM
Cc1ccc(-c2ccc(S(=O)(=O)N3CCC(N4CCC(C)CC4)CC3)cc2)cc1,IC50,[6],49 nM
same,IC50,[7],0.1 nM
COc1c(C[C@@H](C)OC(=O)c2c(C)cc(O)cc2O)c2c3c(C[C@@H](C)OC(=O)c4c(C)cc(O)cc4O)c(OC)c(=O)c4c(O)cc(OC)c(c5c(OC)cc(O)c(c1=O)c52)c43,IC50,[4],3600 nM
N#CC(=C(/N)Sc1ccccc1N)/C(C#N)=C(\N)Sc1ccccc1N,IC50,[12],1140 nM
same,IC50,[13],940 nM
NC1=NC(=O)N(C2CC(O)C(COP(=O)(O)O)O2)C(I)C1 (configuration not stated),IC50,[3],< 50000 nM
Ac-GGEALAD-OH,IC50,[1],12200 nM
same,Ki,[2],3800 nM
COc1c(C[C@@H](C)OC(=O)Oc2ccc(O)cc2)c2c3c(C[C@@H](C)OC(=O)c4ccccc4)c(OC)c(=O)c4c(O)cc(OC)c(c5c(OC)cc(O)c(c1=O)c52)c43 [CALPHOSTIN C],IC50,[4],2860 nM
Cn1cnc2c(F)c(Nc3ccc(Br)cc3Cl)c(C(=O)NOCCO)cc21 [SELUMETINIB],IC50,[12],1250 nM
same,IC50,[13],950 nM
